According to patent US20030232801A1, “Identification of compounds for the treatment or prevention of proliferative diseases” (priority 2001, published 2003):

Columns and labels:
[1] = test system: MT-4 cells (adult human T-cell leukemia cells); assay: Cellular toxicity, MTS cell viability, MT-4 cells; type: cell-based; settings: for IC50: 5 day, MTS viability
Experimental: (§1) 6D-2 cells (MCF-7 human breast cancer cells stably transfected with luciferase linked to the 5′ and 3′UTRs of human HER2) were added to 96-well plates at 7500 cells per well in 200 μL medium and incubated for 24 hours at 100% humidity, 5% CO2, and 37° C. Compounds were diluted from DMSO stock solutions into medium and were added at various concentrations. The 6D-2 cells were incubated for 16 hours at which time the volume of medium in each well was reduced to 100 μL using a plate washer. 20 μL of MTS cell viability reagent (Promega, Madison, Wis.) was then added to each well, and the plates were incubated for 1-4 hours. A plate containing wells with 100 μL medium plus MTS reagent was prepared to determine the background reading. The plates were read on the Wallac 2 plate reader (PerkinElmer Life Science, Boston, Mass.) at 490 nm. Percent viability was calculated as (O.D. of compound treated cells−background O.D.)/(O.D. of DMSO treated cells−background O.D.)×100. MT-4 cells (adult human T-cell leukemia cells) were plated at 1.5×10^5 cells per well in 200 μL medium and incubated for at least one hour before the addition of compounds. The cells were incubated for 5 days at 100% humidity, 5% CO2, and 37° C. Cell viability was determined as described for 6D-2 cells.
(§2) Compounds of the invention containing a pyrrolidine substituent were tested for toxicity to cancerous and non-cancerous cells. 6D-2 cellular activity is representative of potency as an antitumor agent. MT-4 cellular activity is representative of general toxicity. A high IC50 for MT-4 cells and a low IC50 for 6D-2 cells is indicative of a compound of potential therapeutic use in treating or preventing proliferative diseases, such as cancer.

[2] = test system: 6D-2 cells (MCF-7 human breast cancer cells stably transfected with luciferase linked to the 5′ and 3′UTRs of human HER2); assay: Cellular toxicity, MTS cell viability, 6D-2 cells; type: cell-based; settings: for IC50: MTS viability
Experimental: as §1, §2

[3] = Cellular toxicity, MTS cell viability, 6D-2 cells; type: cell-based, human; settings: Homo sapiens, MCF7, MTS viability
Experimental: as §1, §2

SMILES | IC50 [1] [nM] | IC50 [2] [nM] | also measured
CC(=O)Nc1ccc(NC2=C(N3CCCC3)C(=O)c3cnccc3C2=O)cc1 [Example 3A, 6-(N′-4-aminoacetanilide)-7-pyrrolidino-5,8-isoquinolinedione] | 5160 | 370 | 
CC(=O)Nc1ccc(NC2=C(N3CCCC3)C(=O)c3ccncc3C2=O)cc1 [Example 3B, 7-(N′-4-aminoacetanilide)-6-pyrrolidino-5,8-isoquinolinedione] | 6790 | 4080 | 
O=C1C(Nc2ccc(F)cc2)=C(N2CCCC2)C(=O)c2cnccc21 [Example 4, 6-(N′-4-fluoroanilino)-7-pyrrolidino-5,8-isoquinolinedione] | 2510 | 1480 | 
O=C1C(Nc2ccc(F)cc2)=C(N2CCCC2)C(=O)c2ncccc21 [Example 5, 6-(N-4-fluoroanilino)-7-pyrrolidino-5,8-quinolinedione] | 6690 | 770 | 
CC(C)(C)OC(=O)Nc1ccc(NC2=C(N3CCCC3)C(=O)c3ccccc3C2=O)cc1 [Example 6, N-4-((3-pyrrolidino-1,4-naphthalenedion-2-yl)amino)phenyl-O-1.1-dimethylethylcarbamate] | 2780 | 570 | 
Nc1ccc(NC2=C(N3CCCC3)C(=O)c3ccccc3C2=O)cc1 [Example 7, 2-(N-4-aminoanilino)-3-pyrrolidino-1,4-naphthoquinone] | 160 | 70 | 
COc1ccc(NC2=C(N3CCCC3)C(=O)c3ccccc3C2=O)cn1 [Example 8, 2-(N-2-methoxy-5-aminopyridine)-3-pyrrolidino-1,4-naphthoquinone] | 1110 | 120 | 
COc1ccc(NC2=C(N3CCCC3)C(=O)c3ccccc3C2=O)cc1 [Example 9, 2-(N-4-methoxyanilino)-3-pyrrolidino-1,4-naphthoquinone] | 520 | 100 | 
Cc1cc(=O)oc2cc(NC3=C(N4CCCC4)C(=O)c4ccccc4C3=O)ccc12 [Example 10, 7-((3-pyrrolidino-1,4-naphthalenedion-2-yl)amino)-4-methylcoumarin] |  |  | IC50 ([1]; Homo sapiens, MT4, 120 h): 1180 nM; IC50 [3]: 6780 nM
CC(C)NC(=S)Nc1ccc(NC2=C(N3CCCC3)C(=O)c3ccccc3C2=O)cc1 [Example 11, N^1-4-((3-pyrrolidino-1,4-naphthalenedion-2-yl)amino)phenyl-N^2-(1-methylethyl)thiourea] | 6150 | 330 | 
CNC(=S)Nc1ccc(NC2=C(N3CCCC3)C(=O)c3ccccc3C2=O)cc1 [Example 12, N^1-4-((3-pyrrolidino-1,4-naphthalenedion-2-yl)amino)phenyl-N^2-methylthiourea] | 8700 | 100 | 
NCC(=O)c1cccc(NC2=C(N3CCCC3)C(=O)c3ccccc3C2=O)c1 [Example 13, 2-(N-3-aminoacetylanilino)-3-pyrrolidino-1,4-naphthoquinone] |  |  | MT-4 5 day, percent @.10 μM [1]: 80% @.10 μM; 6D-2 24 hr, percent @.10 μM [2]: 70% @.10 μM
O=C1C(Nc2ccccc2)=C(N2CCCC2)C(=O)c2ccccc21 [Example 14, 2-(N-anilino)-3-pyrrolidino-1,4-naphthoquinone] | 2100 | 760 | 
Nc1ccc(C(=O)N(C2=C(N3CCCC3)C(=O)c3ccccc3C2=O)c2ccccc2)cc1 [Example 15, 2-(N-4-aminobenzoylanilino)-3-pyrrolidino-1,4-naphthoquinone] |  |  | IC50 ([1]; Homo sapiens, MT4, 120 h): 1000 nM; 6D-2 24 hr, percent @.10 μM [2]: 60% @.10 μM
O=C1C(Nc2cccc(F)c2)=C(N2CCCC2)C(=O)c2ccccc21 [Example 16, 2-(N-3-fluoroanilino)-3-pyrrolidino-1,4-naphthoquinone] |  | 1360 | MT-4 5 day, percent @.10 μM [1]: 68% @.10 μM
CN(C)C1=C(Nc2cccc(F)c2)C(=O)c2ccccc2C1=O [Example 17, 2-(N-3-fluoroanilino)-3-dimethylamino-1,4-naphthoquinone] |  | 10000 | MT-4 5 day, percent @.10 μM [1]: 100% @.10 μM

SMILES | IC50 [1] [nM] | IC50 [2] [nM] | also measured
CC1CCCN1C1=C(Nc2ccc(F)cc2)C(=O)c2ccccc2C1=O (stereo not shown) [Example 18, 2-(N-4-fluoroanilino)-3-(2-methylpyrrolidino)-1,4-naphthoquinone] | 5240 | 2630 | 
COC[C@@H]1CCCN1C1=C(Nc2ccc(F)cc2)C(=O)c2ccccc2C1=O [Example 19, 2-(N-4-fluoroanilino)-3-(2-(S)-methoxymethylpyrrolidino)-1,4-naphthoquinone] |  | 8950 | MT-4 5 day, percent @.10 μM [1]: 97% @.10 μM
O=C(Nc1ccc(NC2=C(N3CCCC3)C(=O)c3ccccc3C2=O)cc1)c1ccco1 [Example 20, 2-(4-(2-furanoylamino)phenylamino)-3-pyrrolidino-1,4-naphthoquinone] |  |  | IC50 ([1]; Homo sapiens, MT4, 120 h): 110 nM; IC50 [3]: 60 nM
CC(C)OC(=O)Nc1ccc(NC2=C(N3CCCC3)C(=O)c3ccccc3C2=O)cc1 [Example 21, N-4-((3-pyrrolidino-1,4-naphthalenedion-2-yl)amino)phenyl-O-(1-methylethyl)carbamate] | 2000 | 1380 | 
COC(=O)Nc1ccc(NC2=C(N3CCCC3)C(=O)c3ccccc3C2=O)cc1 [Example 22, N-4-((3-pyrrolidino-1,4-naphthalenedion-2-yl)amino)phenyl-O-methylcarbamate] | 470 | 140 | 
COC(=O)Nc1cccc(NC2=C(N3CCCC3)C(=O)c3ccccc3C2=O)c1 [Example 23, N-3-((3-pyrrolidino-1,4-naphthalenedion-2-yl)amino)phenyl-O-methylcarbamate] | 10200 | 870 | 
CC(C)NC(=O)Nc1ccc(NC2=C(N3CCCC3)C(=O)c3ccccc3C2=O)cc1 [Example 24, N′-4-((3-pyrrolidino-1,4-naphthalenedion-2-yl)amino)phenyl-N^2-(1-methylethyl)urea] | 1680 | 180 | 
O=C(Nc1ccccc1)Nc1ccc(NC2=C(N3CCCC3)C(=O)c3ccccc3C2=O)cc1 [Example 25, N^1-4-((3-pyrrolidino-1,4-naphthalenedion-2-yl)amino)phenyl-N^2-phenylurea] | 2220 | 1060 | 
CNC(=O)Nc1ccc(NC2=C(N3CCCC3)C(=O)c3ccccc3C2=O)cc1 [Example 26] | 750 | 110 | 
COCCNC(=O)Nc1ccc(NC2=C(N3CCCC3)C(=O)c3ccccc3C2=O)cc1 [Example 27, N′-4-((3-pyrrolidino-1,4-naphthalenedion-2-yl)amino)phenyl-N^2-(2-methoxyethyl)urea] | 560 | 210 | 
NC(=O)Nc1ccc(NC2=C(N3CCCC3)C(=O)c3ccccc3C2=O)cc1 [Example 28, 2-(N-(4-carbamidoanilino))-3-pyrrolidino-1,4-naphthoquinone] |  | 310 | MT-4 5 day, percent @ 10 μM [1]: 56% @ 10 μM
O=C1C(Nc2ccc(F)c(F)c2)=C(N2CCCC2)C(=O)c2ccccc21 [Example 29, 2-(N-3,4-difluoroanilino)-3-pyrrolidino-1,4-naphthoquinone] |  | 2340 | MT-4 5 day, percent @ 10 μM [1]: 40% @ 10 μM
O=C1C(Nc2ccc(F)cc2)=C(N2CCCC2)C(=O)c2ccccc21 [Example 30, 2-(N-4-Fluoroanilino)-3-pyrrolidino-1,4-naphthoquinone] | 4470 | 520 | 
Nc1ccc2c(c1)C(=O)C(N1CCCC1)=C(Nc1ccc(F)c(F)c1)C2=O [Example 31, 6-Amino-2-(N-3,4-difluoroanilino)-3-pyrrolidino-1,4-naphthoquinone] | 300 | 1500 | 
COC(=O)Nc1ccc2c(c1)C(=O)C(N1CCCC1)=C(Nc1ccc(F)c(F)c1)C2=O [Example 32, 6-[(methoxycarbonyl)amino]-2-(N-3,4-difluoroanilino)-3-pyrrolidino-1,4-naphthoquinone] | 7000 | 4000 | 
O=C1C(Nc2ccc(F)c(F)c2)=C(N2CCCC2)C(=O)c2ccc([N+](=O)[O-])cc21 [Example 33, 7-Nitro-2-(N-3,4-difluoroanilino)-3-pyrrolidino-1,4-naphthoquinone] | 700 | 1000 | 
